Data as given in the NIST ThermoML archive (doi:10.1016/j.tca.2015.02.020).

Assay: molar heat capacity at constant pressure; xn = mol fraction of the nth substance listed
Details: 101 kPa, Liquid, Small sample (50 mg) DSC

NCCO [2-aminoethan-1-ol] + O
Details | molar heat capacity at constant pressure [J/K/mol]
207.9 K, x1 = 0.73 | 113.75
210.55 K, x1 = 0.19 | 71
211.06 K, x1 = 0.31 | 79.98
211.07 K, x1 = 0.23 | 73.71
212.29 K, x1 = 0.23 | 70.92
212.29 K, x1 = 0.31 | 77.16
212.64 K, x1 = 0.73 | 114.74
214.38 K, x1 = 0.23 | 74.55
214.38 K, x1 = 0.31 | 80.61
215.29 K, x1 = 0.19 | 72.31
217.03 K, x1 = 0.23 | 72.04
217.03 K, x1 = 0.31 | 78.1
217.38 K, x1 = 0.73 | 115.23
220.03 K, x1 = 0.19 | 73.62
221.01 K, x1 = 0.31 | 81.87
221.76 K, x1 = 0.23 | 73.15
221.77 K, x1 = 0.31 | 79.36
222.11 K, x1 = 0.73 | 115.72
224.33 K, x1 = 0.31 | 82.81
224.77 K, x1 = 0.19 | 74.66
226.51 K, x1 = 0.23 | 74.27
226.52 K, x1 = 0.31 | 80.3
226.86 K, x1 = 0.73 | 116.22
229.51 K, x1 = 0.19 | 75.97
230.97 K, x1 = 0.23 | 80.69
230.97 K, x1 = 0.31 | 84.38
231.24 K, x1 = 0.23 | 75.67
231.25 K, x1 = 0.31 | 81.24
231.6 K, x1 = 0.73 | 116.22
234.25 K, x1 = 0.19 | 77.02
234.28 K, x1 = 0.31 | 85.32
234.29 K, x1 = 0.23 | 81.25
235.99 K, x1 = 0.23 | 76.78
236 K, x1 = 0.31 | 82.81
236.34 K, x1 = 0.73 | 116.71
238.99 K, x1 = 0.19 | 78.07
240.72 K, x1 = 0.23 | 78.18
240.73 K, x1 = 0.31 | 84.06
240.93 K, x1 = 0.23 | 82.93
240.93 K, x1 = 0.31 | 87.2
241.08 K, x1 = 0.73 | 118.2
241.4 K, x1 = 0.19 | 78.86
243.73 K, x1 = 0.19 | 79.12
244.25 K, x1 = 0.23 | 84.04
244.25 K, x1 = 0.31 | 88.14
244.73 K, x1 = 0.19 | 80.17
245.47 K, x1 = 0.23 | 79.57
245.47 K, x1 = 0.31 | 85.63
245.83 K, x1 = 0.73 | 120.18
247.57 K, x1 = 0.23 | 85.16
247.57 K, x1 = 0.31 | 89.08
247.58 K, x1 = 0.19 | 81.21
248.48 K, x1 = 0.19 | 80.17
250.22 K, x1 = 0.23 | 80.69
250.23 K, x1 = 0.31 | 86.57
250.58 K, x1 = 0.73 | 122.15
250.9 K, x1 = 0.23 | 86.28
250.9 K, x1 = 0.31 | 90.02
251.37 K, x1 = 0.19 | 82.79
253.23 K, x1 = 0.19 | 80.95
254.22 K, x1 = 0.31 | 91.28
254.23 K, x1 = 0.23 | 87.11
254.7 K, x1 = 0.19 | 84.1
254.97 K, x1 = 0.23 | 82.37
254.98 K, x1 = 0.31 | 88.14
255.33 K, x1 = 0.73 | 124.13
257.98 K, x1 = 0.19 | 81.74
259.72 K, x1 = 0.23 | 83.48
259.72 K, x1 = 0.31 | 89.39
260.08 K, x1 = 0.73 | 126.11
260.88 K, x1 = 0.23 | 89.07
260.88 K, x1 = 0.31 | 93.16
261.35 K, x1 = 0.19 | 86.45
262.73 K, x1 = 0.19 | 82.79
264.2 K, x1 = 0.23 | 90.18
264.2 K, x1 = 0.31 | 94.1
264.47 K, x1 = 0.23 | 84.88
264.48 K, x1 = 0.31 | 90.96
264.67 K, x1 = 0.19 | 87.5
264.83 K, x1 = 0.73 | 128.09
267.48 K, x1 = 0.19 | 83.57
269.23 K, x1 = 0.23 | 86.28
269.23 K, x1 = 0.31 | 92.22
269.58 K, x1 = 0.73 | 130.07
270.7 K, x1 = 0.73 | 140.45
270.86 K, x1 = 0.23 | 91.58
270.86 K, x1 = 0.31 | 95.98
271.34 K, x1 = 0.19 | 89.86
272.24 K, x1 = 0.19 | 84.36
274.02 K, x1 = 0.23 | 87.67
274.02 K, x1 = 0.31 | 93.79
274.07 K, x1 = 0.73 | 140.95
274.23 K, x1 = 0.23 | 92.42
274.23 K, x1 = 0.31 | 96.61
274.39 K, x1 = 0.73 | 132.04
274.73 K, x1 = 0.19 | 90.65
277.12 K, x1 = 0.19 | 84.88
278.94 K, x1 = 0.23 | 88.79
278.94 K, x1 = 0.31 | 95.04
279.3 K, x1 = 0.73 | 133.53
280.95 K, x1 = 0.73 | 141.44
281.11 K, x1 = 0.23 | 93.26
281.11 K, x1 = 0.31 | 97.86
281.61 K, x1 = 0.19 | 91.69
282.05 K, x1 = 0.19 | 85.67
283.85 K, x1 = 0.23 | 89.91
283.85 K, x1 = 0.31 | 96.29
284.22 K, x1 = 0.73 | 134.02
284.4 K, x1 = 0.73 | 141.44
284.56 K, x1 = 0.23 | 93.26
284.56 K, x1 = 0.31 | 97.86
285.05 K, x1 = 0.19 | 91.96
